Test results as given in patent US6753150B2, “Method for determining whether a compound is capable of inhibiting the interaction of a peptide with rage” (The Trustees of Columbia University in the City of New York, priority 1998, dated 2004).

Key:
NF-κB [1] = assay: Electrophoretic mobility shift assay for NF-κB in endothelial cells; type: cell-based, human; details: for activation of NF-κB in Ecs: Example 2; for nuclear translocation / activation of NF-κB in HUVEC: 6 hrs, AGEs at 50 μg/ml
Description: FIG. 6. Electrophoretic mobility shift assay. Human umbilical vein endothelial cells (HUVEC) were incubated with mediators for 6 hrs; nuclear extracts were prepared and electrophoretic mobility shift assays performed with ^32P-labelled probe for NF-κB. Lanes contain mediators as above (all AGEs were added at 50 μg/ml). Lanes contain: lane 1, CML-ovalbumin; lane 2, native ovalbumin; lane 3, pentosidine ovalbumin; lane 4, nonimmune IgG and CML ovalbumin; lane 5, anti-RAGE IgG: 7 μg/ml; lane 6; anti-RAGE IgG: 70 μg/ml; lane 7: CML-ovalbumin/100-fold excess unlabelled NF-κB. Supershift assays (lane 8: anti-p50 IgG; lane 9:anti-p65 IgG; lane 10:both anti-p50 IgG and anti-p65 IgG; lane 11: preimmune IgG), all + CML-ovalbumin. Lane 12:CML-ovalbumin: vector alone/13:tail-deleted RAGE.
Electrophoretic mobility shift assays (EMSA). Nuclear extracts were prepared from HUVECs by the method of Schreiber (33). Protein concentration was determined using the Bradford reagent (BIO-RAD®). Double-stranded oligonucleotides representing a portion of the human VCAM-1 promoter containing an NF-κB site were synthesized (Life Technologies). Oligonucleotides were used as probe as follows: NF-κB: 5′[…]3′ (SEQ ID No. 1). Probes were 5′-end labelled with g-[^32P] ATP and polynucleotide kinase. Each reaction contained 10 fmol of probe and 2-5 microliter (1.5 μg) of nuclear extract. Binding reactions were performed in buffer as previously described (19). Complexes were resolved on nondenaturing polyacrylamide gels (6%) in tris (50 mM), borate (45 mM), and EDTA (0.5 mM), ([…]; final pH 7.5). Samples were subjected to electrophoresis for 2 hrs at 10 V/cm. For supershift assays, complexes were preincubated with anti-p65 IgG, anti-p50 IgG or both together, or nonimmune IgG (7.5 μg/ml; 2 hrs 37° C.) in a total reaction volume of 20 μl.
We tested the ability of CML-ovalbumin to ligate RAGE and activate cell signalling pathways.

[2] = tested on: human peripheral blood-derived mononuclear phagocytes; assay: Monocyte chemotaxis assay in modified chemotaxis chambers; type: cell-based; details: mediator in lower wells, three hrs
Description: FIG. 5. Cellular activation studies: mononuclear phagocytes. Human monocytes (5×10^4) were placed in the upper wells of modified chemotaxis chambers with the indicated mediators in the lower wells for three hrs. Membranes were then stained with Giemsa and cells that migrated through the membrane toward the chemotactic stimulus counted per hpf.
Chenotaxis assays. Chemotaxis assays, performed in 48-well microchemotaxis chambers (Neuro-Probe) containing polycarbonate membranes were performed as previously described (15). In these studies, human peripheral blood-derived mononuclear phagocytes, which bear cell surface RAGE, were employed.
Mononuclear phagocytes. To determine if CML-ovalbumin mediated increased human peripheral blood-derived monocyte chemotaxis, experiments were performed in modified chemotaxis chambers as described above.

NF-κB [3] = assay: NF-κB activation in monocytes (MPs) (Example 2); type: cell-based
Excerpt: (§1) Advanced glycation endproducts (AGEs) are heterogeneous compounds that form in hyperglycemia, highly-oxidized environments and renal failure. AGEs accumulate in the plasma and tissues of patients with diabetes; their presence has been linked to the development of medical complications. Interaction of AGEs with Receptor for AGE ([…]) activates cells such as endothelial cells (Ecs) and monocytes (Mps) in a manner favoring the development of vascular/inflammatory cell complications. AGEs consist of structures such as carboxymethyl-lysine and pentosidine (both free and protein-bound forms). To begin to delineate which AGE forms interact with RAGE, we prepared free CML and pentosidine, as well as CML- and pentosidine bovine serum albumin (BSA) and ovalbumin (OVA).

sRAGE [4] = molecular target: T1, sRAGE (Homo sapiens, UniProt Q15109); assay: Radioligand binding of 125I-sRAGE to immobilized AGE-modified proteins (dose response); details: for specific binding to sRAGE/RAGE: immobilized AGE-protein, 125I-sRAGE
T1 construct: full length soluble RAGE (100 nM; specific activity 7,000-8,000 cpm/ng)
Description: Radioligand binding studies: dose response experiments. CML- or pentosidine BSA (5 μg) was immobilized to plastic wells and radioligand binding assays performed with increasing concentrations of purified ^125-I sRAGE +/− excess unlabelled sRAGE (50-fold molar excess). Bound tracer was eluted with buffer containing NP40 (1%) and NaCl (0.15M) and the data subjected to analysis as described in the Experimental Details section.
Radioligand binding assays. […] All materials were devoid of endotoxin using the Detoxi-gel system (PIERCE®) and tested for negativity in the limulus amebocyte assay (SIGMA®). […] Specific AGE or control protein (5 μg) was loaded onto the wells of a NUNC MAXISORP® dish in sodium bicarbonate/sodium carbonate buffer (pH 9.8) overnight at 4° C. The following morning, wells were aspirated and blocked with phosphate buffered saline (with calcium/magnesium) containing bovine serum albumin (1%) for two hrs at 37° C. Wells were then washed once with phosphate buffered saline (without calcium/magnesium) containing Tween 20 (0.05%); 0.150 ml/well. A radioligand binding assay was then performed in phosphate buffered saline containing 0.2% bovine serum albumin for 2 hrs at 37° C. utilizing radiolabelled (^125I; using Iodogen (Pierce)) full length soluble RAGE (100 nM; specific activity 7,000-8,000 cpm/ng) in the presence or absence of unlabelled soluble RAGE (50×molar excess) or the indicated molar excess of competitor. Wells were then eluted after washing as above with buffer containing NP-40 (1%) and NaCl (0.15M). The material retrieved was then counted in a gamma counter (LKB). In certain experiments, antibodies or excess soluble RAGE were employed as indicated to test their ability to compete in the indicated assays.
Radioligand binding studies. […] Radioligand binding assays were performed in which CML-BSA, pentosidine-BSA or methylglyoxal-human serum albumin was adsorbed to plastic wells. Radioligand binding assays were performed as described and equilibrium binding data was analyzed according to the equation of Klotz and Hunston.

[5] = tested on: Human umbilical vein endothelial cells (HUVEC); assay: Molt-4 binding assay on stimulated endothelial cells (cell surface VCAM-1 functional activity); type: cell-based; details: for binding of Molt-4 cells to Ecs: Example 2
Description: FIG. 4. Cellular activation studies: endothelial cells. HUVEC were incubated in the presence of the indicated mediators for 6 hrs. Where indicated, certain cells were preincubated with anti-RAGE/preimmune IgG for one hour. Cells were washed and incubated with ^51Cr-Molt-4 cells (bear VLA-4) for 1 hr. Bound radioactivity was eluted in the presence of SDS (1%) and counted in a gamma counter. Results are reported compared with Molt-4 cell binding to cells exposed to native ovalbumin (defined as “1”).
Molt-4 binding assays. Molt-4 binding assays were performed according to the general method of Marui et al (32). Human umbilical vein endothelial cells were stimulated with the indicated compound in the presence or absence of competitors for 6 hrs at 37° C. Molt-4 cells, which express VLA-4, ligand for VCAM-1, (ATCC) were grown in RPMI 1640 containing fetal bovine serum (10%). Radio labelling was accomplished by incubating Molt-4 cells (2×10^7 cells/ml) for 16 hrs at 37° C. in the above medium containing ^51-Cr (0.2 mCi/ml). Before the binding assay, unincorporated radioactivity was removed by washing cells with Hank's balanced salt solution, and then resuspending them in RPMI containing fetal bovine serum (10%) at 4×10^6 cells/ml. Molt-4 cells were incubated with endothelial cells for one hr at 37° C., and nonadherent cells were removed by washing twice with Medium 199 containing fetal bovine serum (1%); adherent cells were solubilized in SDS (1%), and radioactivity counted in a gamma counter.
To test if incubation of CML-ovalbumin or pentosidine-ovalbumin activated EC, specific AGEs were rendered free of endotoxin (Detoxigel columns (PIERCE®)) and tested for absence of endotoxin by limulus amebocyte assay (SIGMA®).

RAGE = RAGE (Homo sapiens, UniProt Q15109); assay: Binding of CML-modified proteins to immobilized RAGE (Example 2); details: for Kd: dose-dependent and saturable
Excerpt: as §1

VCAM-1 = assay: Infusion into normal mice, Northern analysis of VCAM-1 mRNA in lung; type: in vivo; details: 100 μg infused into CD1 mice, six hrs, Northern blot
Description: FIG. 7. In vivo studies: infusion of CML-BSA into mice modulates […] expression. CML-BSA (lane 2) or native BSA (lane 1) (both 100 μg) was infused into normal CD1 mice. LPS (100 μg) was infused as positive control (lane 3). Six hrs later, mice were humanely sacrificed and lungs rapidly removed for preparation of RNA. Northern analysis was performed as described above for VCAM-1; membranes were then stripped and reprobed with ^32-P-labelled cDNA for G3PDH.
Northern blot analysis. Northern blot analysis for VCAM-1 and G3PDH were performed as previously described (19).
Infusion of CML-BSA into normal mice increases mRNA for Vascular Cell Adhesion Molecule-1.

sRAGE [6] = molecular target: T1, sRAGE; assay: Radioligand competition: 125I-sRAGE (100 nM) binding to immobilized CML-BSA with competitors; details: competitor in excess
Description: Radioligand binding studies: competition experiments. CML-BSA was immobilized to wells; binding was performed with ^125-I sRAGE (100 nM) with the indicated competitors. […] Percent maximal binding is reported compared to binding to immobilized CML-BSA without competitor (100%).
Radioligand binding studies: CML-adducts interact with the V-type Ig domain of RAGE. CML-BSA was immobilized to wells; binding was performed with ^125-I sRAGE (100 nM) in the presence or absence of excess unlabelled (100-fold) V-type Ig domain, C1 Ig domain or C2 Ig domain. Percent maximal binding is reported compared to binding to immobilized CML-BSA without competitor (100%).
Radioligand binding assays. […] All materials were devoid of endotoxin using the Detoxi-gel system (PIERCE®) and tested for negativity in the limulus amebocyte assay (SIGMA®). Gas chromatography-mass spectroscopy and HPLC analyses were performed and verified the identity of the prepared AGES. Specific AGE or control protein (5 μg) was loaded onto the wells of a NUNC MAXISORP® dish in sodium bicarbonate/sodium carbonate buffer (pH 9.8) overnight at 4° C. […] The material retrieved was then counted in a gamma counter (LKB). […]
Radioligand binding studies. […] Radioligand binding assays were performed as described and equilibrium binding data was analyzed according to the equation of Klotz and Hunston.

T1 sequence (Q15109 23-342 limits assumed): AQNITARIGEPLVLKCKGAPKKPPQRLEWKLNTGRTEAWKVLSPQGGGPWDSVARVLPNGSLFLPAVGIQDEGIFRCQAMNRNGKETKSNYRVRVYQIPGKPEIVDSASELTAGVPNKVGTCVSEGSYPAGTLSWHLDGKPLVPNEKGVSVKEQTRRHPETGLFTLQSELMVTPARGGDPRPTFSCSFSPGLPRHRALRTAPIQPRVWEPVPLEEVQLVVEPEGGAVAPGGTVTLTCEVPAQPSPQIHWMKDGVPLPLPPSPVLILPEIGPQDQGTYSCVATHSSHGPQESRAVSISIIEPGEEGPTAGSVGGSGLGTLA
Chain of RAGE (Q15109 23-404): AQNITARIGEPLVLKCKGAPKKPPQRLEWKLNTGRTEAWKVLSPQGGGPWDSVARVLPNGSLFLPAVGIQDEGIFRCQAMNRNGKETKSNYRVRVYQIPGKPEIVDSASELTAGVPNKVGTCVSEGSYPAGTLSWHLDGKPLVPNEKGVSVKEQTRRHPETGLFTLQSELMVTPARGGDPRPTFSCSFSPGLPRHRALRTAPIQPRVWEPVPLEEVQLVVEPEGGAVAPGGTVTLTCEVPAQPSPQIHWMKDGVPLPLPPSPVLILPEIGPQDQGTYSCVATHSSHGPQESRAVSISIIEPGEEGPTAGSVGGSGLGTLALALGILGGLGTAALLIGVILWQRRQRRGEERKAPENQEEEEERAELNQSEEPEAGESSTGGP

pentosidine-BSA: pentosidine-modified bovine serum albumin
activation of NF-κB in Ecs (NF-κB [1]): without effect
monocyte chemotaxis [2]: without effect
activation of NF-κB in MPs (NF-κB [3]): without effect
specific binding to sRAGE/RAGE (sRAGE [4]): no specific binding
binding of Molt-4 cells to Ecs [5]: without effect

CML-ovalbumin: carboxymethyl-lysine-modified ovalbumin, a synthetic AGE
nuclear translocation / activation of NF-κB in HUVEC (NF-κB [1]): increased nuclear translocation of NF-κB
activation of NF-κB in Ecs (NF-κB [1]): activated NF-κB
monocyte chemotaxis [2]: stimulated monocyte chemotaxis in a dose-dependent manner
activation of NF-κB in MPs (NF-κB [3]): activated NF-κB
binding of Molt-4 cells to Ecs [5]: increased binding of Molt-4 cells
increase in binding of 51Cr-Molt 4 cells to HUVEC ([5]; HUVEC exposed 6 hrs, relative to native ovalbumin (defined as 1)): 2.3 fold

native ovalbumin: unmodified ovalbumin control protein
nuclear translocation / activation of NF-κB in HUVEC (NF-κB [1]): not
monocyte chemotaxis [2]: without effect
effect on binding of 51Cr-Molt 4 cells to HUVEC ([5]; HUVEC exposed 6 hrs): without effect

unmodified BSA: unmodified bovine serum albumin control protein
effect on binding of CML-BSA and CML-OVA to immobilized RAGE (RAGE): not
mRNA for VCAM-1 in lung tissue (VCAM-1): without effect

N[C@@H](CCCCn1cccc2nc(NCCC[C@H](N)C(=O)O)nc1-2)C(=O)O [free pentosidine, Pentosidine]
effect on binding of CML-BSA and CML-OVA to immobilized RAGE (RAGE): not
effect on binding of 125I-sRAGE to immobilized CML-BSA (sRAGE [6]): no effect

CML-BSA: carboxymethyl-lysine-modified bovine serum albumin, a synthetic AGE
activation of NF-κB in MPs (NF-κB [3]): activated NF-κB
Kd (RAGE): 60 nM
Kd (sRAGE [4]; read-out: KD of binding to sRAGE, AGE-protein (5 μg) immobilized on wells, increasing 125I-sRAGE +/- 50-fold excess unlabelled sRAGE): ~76 nM
mRNA for VCAM-1 in lung tissue (VCAM-1): increased mRNA for VCAM-1

N[C@@H](CCCCNCC(=O)O)C(=O)O [free CML, N^e-(Carboxymethyl)lysine]
effect on binding of CML-BSA and CML-OVA to immobilized RAGE (RAGE): not
specific binding to sRAGE/RAGE (sRAGE [4]): not
effect on binding of 125I-sRAGE to immobilized CML-BSA (sRAGE [6]): no effect

pentosidine-ovalbumin: pentosidine-modified ovalbumin
nuclear translocation / activation of NF-κB in HUVEC (NF-κB [1]): not
effect on binding of 51Cr-Molt 4 cells to HUVEC ([5]; HUVEC exposed 6 hrs): without effect

B1: CML-ovalbumin: carboxymethyl-lysine-modified ovalbumin, a synthetic AGE (protein, UniProt P01012 2-386, looked up)
Ovalbumin: GSIGAASMEFCFDVFKELKVHHANENIFYCPIAIMSALAMVYLGAKDSTRTQINKVVRFDKLPGFGDSIEAQCGTSVNVHSSLRDILNQITKPNDVYSFSLASRLYAEERYPILPEYLQCVKELYRGGLEPINFQTAADQARELINSWVESQTNGIIRNVLQPSSVDSQTAMVLVNAIVFKGLWEKAFKDEDTQAMPFRVTEQESKPVQMMYQIGLFRVASMASEKMKILELPFASGTMSMLVLLPDEVSGLEQLESIINFEKLTEWTSSNVMEERKIKVYLPRMKMEEKYNLTSVLMAMGITDVFSSSANLSGISSAESLKISQAVHAAHAEINEAGREVVGSAEAGVDAASVSEEFRADHPFLFCIKHIATNAVLFFGRCVSP
modifications: carboxymethyl-lysine modified
notes: carboxymethyl-lysine-modified ovalbumin, a synthetic AGE
Kd (RAGE): 60 nM

B2: native ovalbumin: unmodified ovalbumin control protein (protein, UniProt P01012 2-386, looked up)
Ovalbumin: B1 Ovalbumin
effect on binding of CML-BSA and CML-OVA to immobilized RAGE (RAGE): not
